What all share (assay type): cell-based
For assay [1], the system named is Chlamydia trachomatis (Ctr) strain L2/434/Bu. The assay is described as follows: Ctr infectivity assay, progeny infection, cellular protection by GFP microscopy quantification. To be noted: HeLa229 cells, Ctr MOI1, progeny infection fixed 48 hpi, versus solvent-treated cells; for inhibition at 25 µM: Chlamydia trachomatis, HeLa 229, 48 h; for Cellular protection at 75 μM (%): 75 μM compound. An excerpt:
(§1) Chlamydia trachomatis (Ctr). Laboratory-adapted strain L2/434/Bu (ATCC VR902B) was used in assays. Full biological and genetic information is available for this strain including complete genome sequence and defined proteome. This strain has a relatively low particle to infectivity ratio, perform efficient cell infection and has a higher viability than standard genital tract isolates with faster developmental cycle. Culture conditions have been described in (Wang Y., Kahane S., Cutcliffe L. T., Skilton R. J., Lambden P. R., Clarke I. N. Development of a transformation system for Chlamydia trachomatis: Restoration of glycogen biosynthesis by acquisition of a plasmid shuttle vector. PLoS Pathogen, 2011, 7(9): e1002258. doi: 10.1371/journal.ppat.1002258).
Compound application during Chlamydia trachomatis infection. HeLa229 cells were pretreated with Retro-1 and Retro-1 derivatives in concentrations of 25 μM and 75 μM for 1 hour until Chlamydia trachomatis (MOI1) were added to the cells. Compounds were present during infection. To obtain progeny infection, compound treated cells were lysed 24 h post infection (hpi) and lysate was used to infect fresh HeLa 229 cells. Infected cells of progeny infection were fixed with 4% Paraformaldehyde 48 hpi. Cells were stained for DAPI and Chlamydia trachomatis were detected by GFP-signal. Images are representative of n=2 independent experiments. Quantification of infected cells by Chlamydia trachomatis was realized from microscopy images with Image J software (FIG. 7) and cellular protection by compounds at 25 μM and 75 μM was then determined (Table 1) by comparison with solvent-treated cells (control) with the following equation: […]

Assay [2] shares this test system. Description: Ctr infectivity assay, primary and progeny infection, HSP60 immunoblot. Particulars: Retro-1 50-75 μM in the primary infection; HeLa229 cells; FIG. 6.
Source text: as §1, with “performs” for “perform”
Compound application during Ctr infection. HeLa229 cells were pretreated with Retro-1 in concentrations of 25, 50 and 75 μM for 30 min until Ctr (MOI1) were added to the cells. Retro-1 was present during infection.
Cells with primary infection were lysed 24 h post infection (hpi). To obtain progeny infection compound treated cells were lysed 48 hpi and lysate was used to infect fresh HeLa229 cells. Progeny infection was lysed 24 hpi and analyzed together with primary infection samples by immunoblot. Chlamydial growth was detected with antibodies against chlamydial HSP60 protein and Actin was used as loading control (FIG. 6).
Background: In western blotting, separated proteins are transferred to a membrane and probed.

Assay [3] concerns Simkania negevensis (Sn) strain Z. The assay is described as follows: Sn infectivity assays (primary and progeny infection) in HeLa229 cells. To be noted: for effect on primary and progeny infection for Simkania / concentration at which maximal inhibition of Sn replication was observed: HeLa cells; for effect on primary and progeny infection for Simkania: GroEL western, inclusion size, inclusion number, microscopy; for concentration at which maximal inhibition of Sn replication was observed: tested at 25 and 75 μM, FIGS. 1-4; for effect on Sn inclusions (transmission electron microscopy): infected HeLa cells versus DMSO-treated control, FIG. 5. How it is done: Simkania negevensis (Sn) strain Z (ATCC VR-1471) was prepared as described previously (Mehlitz A, Karunakaran K, Herweg J A, Krohne G, van de Linde S, Rieck E, Sauer M, Rudel T. The chlamydial organism Sn forms ER vacuole contact sites and inhibits ER-stress. Cell Microbiol 2014; 16(8):1224-1243).
Briefly, HeLa229 cells were grown to 50-70% confluence, were inoculated with Sn in RPMI1640 with 5% FBS, for 6 h at 35° C. in a humidified incubator at 5% CO2. Medium was replaced by infection medium (RPMI1640, Glutamax, 5% FBS, w/o HEPES) and growth was allowed for 3 days. Cells were mechanically detached and bacteria were released using ˜2-5 mm glass beads (Carl Roth). Low speed supernatant (600×g, 4° C. and 5 min) was subjected to high-speed centrifugation (20,000×g, 4° C. and 30 min) to pellet bacteria. Bacteria were washed twice with 5 ml SPG (250 mM sucrose, 50 mM sodium phosphate, 5 mM glutamate, pH 7.4), aliquoted and stored at −80° C. in SPG.
40,000 Hela cells were seeded in 12-well cluster plates, inhibitor-treated and infected as indicated in the respective experiment.
For infectivity assays cells were either fixed and stained at indicated time points (FIG. 2, 4; inclusion formation/primary infection) or bacteria were released via one freeze thaw cycle (−70° C./37° C.) followed by mechanical release through pipetting and transfer to fresh HeLa229 cells (1:25-1:50, progeny/infectivity). Cells were centrifuged for 1 h at 35° C. and medium exchanged to infection medium. Progeny was fixed at day 3 post infection and processed for staining (FIG. 3) or harvested for immunoblotting (FIG. 1). Infectivity assays were imaged on an automated fluorescence microscope Leica DMIR (FIG. 4). Numbers and average sizes of the SCV as well as host cell numbers were determined via GroEL and DAPI staining and images were analysed and quantified using FIJI (ImageJ) and Excel (Microsoft).
In progeny assay, bacteria are first grown in Hela299 cells treated with inhibitors, Retro-1 and VP-184 (25 and 75 μM), and the infectious particles from this primary infection are applied to fresh cells in the absence of inhibitor to measure the bacterial load (GroEL immunoblot) and inclusion formation (immunofluorescence microscopy).

Broadly, the inhibition is the drop in the measured response relative to a control, in per cent. Lower therefore signals a weak effect. The molecule `O=C1CN=C(c2ccccc2)c2cc(Br)cc(Br)c2N1` [HA061, 7,9-dibromo-5-phenyl-1,3-dihydro-2H-benzo[e][1,4]diazepin-2-one] registered an inhibition at 25 µM in assay [1] (25 μM compound) of 57.8%.
For the molecule `O=C1CN=C(c2ccccc2Cl)c2cc(Cl)ccc2N1` [HA197, 7-chloro-5-(2-chlorophenyl)-1,3-dihydro-2H-benzo[e][1,4]diazepin-2-one], the “Cellular protection at 75 μM (%)” value in assay [1] is on record as 84.3%. In assay [1] (25 μM compound), 25 µM produced 90.6% inhibition.
In the case of `CN1C(=O)CN=C(c2ccccc2Cl)c2cc(Cl)ccc21` [HA200, 7-chloro-5-(2-chlorophenyl)-1-methyl-1,3-dihydro-2H-benzo[e][1,4]diazepin-2-one], the inhibition at 25 µM in assay [1] (25 μM compound) is 47%.
The molecule `O=C1CN(C2CCCC2)C(c2ccccc2)c2cc(Br)ccc2N1` (stereo not drawn) [HA229, 7-bromo-4-cyclopentyl-5-phenyl-1,3,4,5-tetrahydro-2H-benzo[e][1,4]diazepin-2-one] had an inhibition at 25 µM in assay [1] (25 μM compound) of 20.2%.
As for `CC1CCC(N2CC(=O)Nc3ccc(Br)cc3C2c2ccccc2)C1` (stereo not drawn) [HA280, 7-bromo-4-(3-methylcyclopentyl)-5-phenyl-1,3,4,5-tetrahydro-2H-benzo[e][1,4]diazepin-2-one], in assay [1] (25 μM compound), the “Cellular protection at 25 μM (%)” value is reported as “full protection” and the inhibition at 25 µM turned out to be 100%.
Consider `CCC(=O)N1CC(=O)Nc2ccc(Br)cc2C1c1ccccc1` (stereo not drawn) [Retro-1, 7-bromo-5-phenyl-4-propionyl-1,3,4,5-tetrahydro-2H-benzo[e][1,4]diazepin-2-one], for which the “infectivity in the Ctr progeny (HSP60 immunoblot)” value in assay [2] is given as “significant reduced infectivity in the progeny”. In addition, the “Cellular protection at 75 μM (%)” value in assay [1] was determined as 2.4%. Besides, the inhibition at 25 µM in assay [1] (25 μM compound) came out at 26.5%. Besides, in assay [3], the “effect on primary and progeny infection for Simkania” value was “inhibitor effect on primary and progeny infection”; the “concentration at which maximal inhibition of Sn replication was observed” value was found to be 75 µM; the “effect on Sn inclusions (transmission electron microscopy)” value was “inclusions were smaller”.
Turning to `O=C1CN=C(c2ccccc2)c2cc(Br)ccc2N1` [VP173, 7-bromo-5-phenyl-1,3-dihydro-2H-benzo[e][1,4]diazepin-2-one], the results for the “Cellular protection at 75 μM (%)” value in assay [1] and in assay [1] (listed as VP 173) were 100% and “full protection”, respectively. In addition, at 25 µM the inhibition in assay [1] (25 μM compound) was 61.5%.
Consider `O=C1CNC(c2ccccc2)c2cc(Br)ccc2N1` (stereo not drawn) [VP174, 7-bromo-5-phenyl-1,3,4,5-tetrahydro-2H-benzo[e][1,4]diazepin-2-one], for which the “Cellular protection at 75 μM (%)” value in assay [1] is listed as 52.8%. In assay [1] (25 μM compound), this molecule gave an inhibition at 25 µM of 27.6%.
Regarding `CCCN1CC(=O)Nc2ccc(Br)cc2C1c1ccccc1` (stereo not drawn) [VP-184, 7-bromo-5-phenyl-4-propyl-1,3,4,5-tetrahydro-2H-benzo[e][1,4]diazepin-2-one], in assay [3], the “effect on primary and progeny infection for Simkania” value is “inhibitor effect on primary and progeny infection”; the “concentration at which maximal inhibition of Sn replication was observed” value stood at 25 µM; the “effect on Sn inclusions (transmission electron microscopy)” value was “strongly reduced Sn inclusion formation, size, numbers and Sn replication”.

The values are drawn from patent US11136299B2, “Benzodiazepine derivatives for use in the treatment of Chlamydiales infections” (priority 2015, dated 2021).
